Consider nine compounds from patent publication US9981942B2, “Piperidine derivatives having multimodal activity against pain” (LABORATORIOS DEL DR. ESTEVE S.A., priority 2013, dated 2018).

The test concerns the target σ1 receptor and the μ-opiod receptor. Briefly: μ and σ1 dual binding: combined class from the Ki of both radioligand assays. Set-up: species or system human; key to μ and σ1 dual binding: +: Both Ki-μ and Ki-σ1>=500 nM; ++: One Ki<500 nM while the other Ki is >=500 nM; +++: Both Ki-μ and Ki-σ1<500 nM; ++++: Both Ki-μ and Ki-σ1<100 nM. Conditions: transfected HEK-293 membranes (σ1), transfected CHO-K1 cell membranes (μ); for μ and σ1 dual binding: combined class for Ki-μ and Ki-σ1. In short, it runs like this: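 Classes combine both Ki values, split at 500 nM and 100 nM. Human μ-opioid binding used 1 nM [3H]-DAMGO on CHO-K1 membranes (27 °C, 60 min, pH 7.4, naloxone 10 μM for NSB); human σ1 used 5 nM [3H](+)-pentazocine on HEK-293 membranes (37 °C, 120 min, pH 8, haloperidol 10 μM for NSB).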

SMILES strings stand for the structures.

Turning to `Cc1ccc(F)c(-n2cc(CN3CCC(c4cccc(O)c4)CC3)nn2)c1` [Example 224, 3-(1-((1-(2-fluoro-5-methylphenyl)-1H-1,2,3-triazol-4-yl)methyl)piperidin-4-yl)phenol], the Ki range for both μ and σ1 (dual-binding class) is < 100 nM. Same read-out and setting: the same measure for `c1ccc(-n2cc(CN3CCC(c4cccc(Nc5nccs5)c4)CC3)nn2)cc1` [Example 225, N-(3-(1-((1-phenyl-1H-1,2,3-triazo1-4-yl)methyl)piperidin-4-yl)phenyl)thiazol-2-amine]: < 100 nM.

As for `Oc1cccc(C2CCN(Cc3cn(-c4ccc(C(F)(F)F)cc4F)nn3)CC2)c1` [Example 226, 3-(1-((1-(2-fluoro-4-(trifluoromethyl)phenyl)-1H-1,2,3-triazol-4-yl)methyl)piperidin-4-yl)phenol], the Ki range for both μ and σ1 (dual-binding class) was < 100 nM. `O=S(=O)(Nc1cccc(C2CCN(Cc3cn(-c4ccccc4F)nn3)CC2)n1)C1CC1` [Example 228, N-(6-(1-((1-(2-fluorophenyl)-1H-1,2,3-triazol-4-yl)methyl)piperidin-4-yl)pyridin-2-yl)cyclopropanesulfonamid]: the Ki range for both μ and σ1 (dual-binding class) is < 500 nM. Same read-out and setting: the same measure for `c1ccc(Cn2cc(CN3CCC(c4cccc(Nc5nccs5)c4)CC3)nn2)nc1` [Example 229, N-(3-(1-((1-(pyridin-2-ylmethyl)-1H-1,2,3-triazol-4-yl)methyl)piperidin-4-yl)phenyl)thiazol-2-amine]: < 500 nM. Turning to `c1ccc(Cn2cc(CN3CCC(c4cccc(Nc5nccs5)n4)CC3)nn2)nc1` [Example 230, N-(6-(1-((1-(pyridin-2-ylmethyl)-1H-1,2,3-triazol-4-yl)methyl)piperidin-4-yl)pyridin-2-yl)thiazol-2-amine], the “μ and σ1 dual binding” value was “++”.

`c1ccc(Cn2cc(CN3CCC(c4cccc(Nc5ccccn5)c4)CC3)nn2)nc1` [Example 231, N-(3-(1-((1-(pyridin-2-ylmethyl)-1H-1,2,3-triazol-4-yl)methyl)piperidin-4-yl)phenyl)pyridin-2-amine]: the “μ and σ1 dual binding” value was “++”. Consider `Fc1ccc(Nc2cccc(C3CCN(Cc4cn(Cc5ccccn5)nn4)CC3)c2)nc1` [Example 232, 5-fluoro-N-(3-(1-((1-(pyridin-2-ylmethyl)-1H-1,2,3-triazol-4-yl)methyl)piperidin-4-yl)phenyl)pyridin-2-amine], for which the Ki range for both μ and σ1 (dual-binding class) is < 500 nM. For the compound `Cc1ccc2cc(-n3cc(CN4CCC(c5cccc(O)c5)CC4)nn3)ccc2n1` [Example 233, 3-(1-((1-(2-methylquinolin-6-yl)-1H-1,2,3-triazol-4-yl)methyl)piperidin-4-yl)phenol], the Ki range for both μ and σ1 (dual-binding class) is < 500 nM.
